We go through 35 compounds from article PMC5259778, “Candidate pheromone receptors of codling moth Cydia pomonella respond to pheromones and kairomones” (Scientific Reports, 2017).

Values after ≈ are worked out from the molar mass of the structure shown.

For data set [1] the following is noted: ref Scifinder, 2015; Chemspider; cited from earlier work.
In data set [2] the test system is CpomOR1. As to the kind of experiment: Single sensillum recordings, CpomOR1 expressed in Drosophila at1 OSNs. It is filed as cell-based, Cydia pomonella. The following applies: 10 μg per stimulus. An excerpt:
To perform heterologous expression in D. melanogaster OSNs, CpomORs were amplified using primers in Table 2 and purified PCR products were cloned into the PCR8/GW/TOPO plasmid (Invitrogen) following the recommended protocol. Cassettes with inserts were then transferred from their PCR8/GW/TOPO plasmids to the destination vector (pUASg-HA.attB, constructed by E. Furger and J. Bischof, kindly provided by the Basler group, Zürich), using the Gateway LR Clonase II kit (Invitrogen). The integrity and orientation of inserts was confirmed by sequencing (Sanger sequencer, 3730xl). Transformant UAS-CpomOR3 and UAS-CpomOR1 lines were generated by Best Gene (Chino Hills, CA, USA), using the PhiC31 integrase system, while the transformant UAS-CpomOR6a line was generated in our labs. Briefly, recombinant pUASg-HA.attB-CpomOR plasmids were injected into embryos of a D. melanogaster line containing an attP insertion site within the third chromosome (genotype y1 M{vas-int.Dm}ZH-2A w*; M{3xP3-RFP.attP}ZH-86Fb), leading to non-random integration. To drive expression of CpomORs in at1 OSNs in place of the endogenous receptor Or67d, transformant UAS-CpomOR lines were crossed to the knock-in Or67d^GAL4 line (kindly provided by Barry Dickson) to generate double homozygous lines w^+;UAS-CpomOR; Or67d^GAL4. Additionally, to drive expression of CpomOR3 in ab3A OSNs, the UAS-CpomOR3 line was crossed to the Δhalo;Or22a-Gal4 mutant line[20][57]. To verify insertion of UAS-CpomORs constructs into the genome, gDNA was extracted and used as template in PCR with primers for the full ORF of CpomORs (Table 2).
CpomOR1 and CpomOR6a expressed in at1 OSNs, and CpomOR3 expressed in ab3A OSNs, were tested through single sensillum recordings (SSR). Three to 8-day-old flies were immobilized in 100 μL pipette tips with only the top half of the head protruding. The left antenna of each insect was gently pushed with a glass capillary against a double-sided adhesive tape placed on a piece of glass. This piece of glass and the pipette tip were fixed with dental wax on a microscope slide. Electrolytically sharpened tungsten electrodes (Harvard Apparatus Ltd, Edenbridge, United Kingdom) were used to penetrate the insect´s body. The reference electrode was manually inserted in the right eye of the fly, while the recording electrode was manoeuvred with a DC-3K micromanipulator equipped with a PM-10 piezo translator (Märzhäuser Wetzler GmbH, Wetzler, Germany) and inserted at the base of the determined sensilla. Signals coming from the olfactory sensory neurons were amplified 10 times with a probe (INR-02, Syntech, Hilversum, the Netherlands), digitally converted through an IDAC-4-USB (Syntech) interface, and visualized and analysed with the software Autospike v. 3.4 (Syntech). A constant flow of 0.65 m/s of humidified air (charcoal-filtered) was delivered through a glass tube to the antenna. The panel of odorants was given to the insect by inserting pipettes containing a piece of filter paper with the correspondent stimulus in a lateral hole of the glass tube and puffing a flow of 2.5 mL of air during 0.5 s through the pipette. For CpomOR1 and CpomOR6a the panel of odorants was prepared by applying 10 μL of a solution of 1.0 μg/μL of the compounds in Supplementary Dataset S2 and Supplementary Dataset S3, for a total amount of 10 μg per stimulus. In the case of CpomOR3, a similar dilution process was used for the dose response experiments of ethyl-(E,Z)-2,4-decadienoate and methyl-(E,Z)-2,4-decadienoate, as well for dose response of experiments of codlemone acetate in CpomOR6a. Compounds were diluted from concentrations ranging from 0.01 ng/μL to 10 μg/μL in decadic steps, allowing reaching concentrations from 100 pg to 100 μg per stimulus when 10 μL of the dilution was applied in the piece of filter paper. […]

One may read the LogP as a log measure of how a compound divides between an organic and an aqueous phase. Usually Solubility stands for how much of the substance goes into solution per volume. For the compound `C=C(C)C1CC=C(C=O)CC1` (centres unmarked) [1,8-p-menthadien-7-al (perillaldehyde), 1,8-p-menthadien-7-al], in data set [1], the LogP is 3.053 ± 0.335 and the “Solubility” value is 6.1 mM (≈ 916 µg/mL).
As to `CCCCCCCCO` [1-octanol], the LogP in data set [1] is on record as 2.876±0.177.
For `CCCCCO` [1-pentanol], in data set [1], the LogP is reported as 1.348±0.176 and the “Solubility (M)” value was 0,24 M.
For the compound `CCC(C)CO` (centres unmarked) [2-methyl-1-butanol], the LogP in data set [1] is on record as 1.192±0.187.
Regarding `CC(C)CCC(=O)c1ccoc1` [3-(4-methyl-1-oxopentyl)furan-], in data set [1], the LogP is given as 2.851 ± 0.318 and the “Solubility” value is 2.1 mM (≈ 349 µg/mL).
As to `CC(C)CCO` [3-methyl-1-butanol], in data set [1], the LogP is on record as 1.192±0.187 and the “Solubility (M)” value was 0,34 M.
In the case of `C=CCc1ccc(OC)cc1` [4-Allylanisole], the LogP in data set [1] is recorded as 3.088±0.223.
Consider `CC(C)c1ccc(O)cc1` [4-isopropyl phenol], for which, in data set [1], the LogP is on record as 2.986±0.200 and the “Solubility (M)” value is on record as 0,015 M.
For `CC(=O)CCC=C(C)C` [6-methyl-5-hepten-2-one], in data set [1], the LogP was 1.947±0.238 and the “Solubility” value is 52 mM (≈ 6560 µg/mL).
Consider `C=C(C)[C@@H]1CCC2=CC(=O)C[C@@H](C)[C@]2(C)C1` [(+)-nootkatone], for which, in data set [1], the LogP is on record as 3.765±0.275 and the “Solubility (M)” value is 2,40E-04 M.
Take `CCC/C=C/C=O` [(E)-2-hexenal]: in data set [1], the LogP is reported as 1.790±0.281 and the “Solubility (M)” value is given as 0,09 M.
Consider `C/C=C\C/C=C/CCCCCCCCOC(C)=O` [(Z9,E12)-14:Ac], for which the Spikes/s in data set [2] (replicate 1) is 2 Spikes/s; in data set [2] (replicate 2), -4 Spikes/s; in data set [2] (replicate 3) it was 2 Spikes/s; in data set [2] (replicate 4), -10 Spikes/s; in data set [2] (replicate 5) it was 0 Spikes/s.
Take `CC/C=C\CCO` [(Z)-3-hexenol]: the “Solubility” value in data set [1] was 140 mM (≈ 14000 µg/mL).
With `O=Cc1ccccc1` [benzaldehyde], in data set [1], the LogP is 1.452±0.242 and the “Solubility (M)” value is recorded as 0,02 M.
`COCc1ccccc1` [benzyl methyl ether]: in data set [1], the LogP was 1.843±0.239 and the “Solubility (M)” value is 0,05 M.
`CC(C)(C)c1ccc(CCC=O)cc1` [bourgeonal]: in data set [1], the LogP was 3.486±0.245 and the “Solubility (M)” value is given as 4,50E-04 M.
Regarding `CCCCCC(=O)OCCCC` [butyl hexanoate], the Spikes/s is 4 Spikes/s in data set [2] (replicate 1); -4 Spikes/s in data set [2] (replicate 2); 2 Spikes/s in data set [2] (replicate 3); 0 Spikes/s in data set [2] (replicate 4); -8 Spikes/s in data set [2] (replicate 5).
In the case of `O=C1CCCCC1` [cyclohexanone], in data set [1], the LogP is recorded as 0.821±0.251 and the “Solubility” value is 150 mM (≈ 14700 µg/mL).
`CCCc1ccc(O)c(OC)c1` [dihydro eugenol, 2-methoxy-4-propylphenol]: in data set [1], the LogP is recorded as 2.943±0.224 and the “Solubility (M)” value is 6,00E-03 M.
`C=CCc1ccc(O)c(OC)c1` [eugenol]: in data set [1], the LogP was 2.403±0.236.
Take `CC(C)=CCC/C(C)=C/CO` [geraniol]: in data set [1], the LogP was 2.942±0.271.
`CC(C=O)Cc1ccc2c(c1)OCO2` (centres unmarked) [helional]: the LogP in data set [1] is recorded as 1.982±0.343.
As for `O=Cc1ccc2c(c1)OCO2` [heliotropin], the LogP in data set [1] is recorded as 1.050±0.302.
For `CCCCCCCOC(=O)CCC` [heptyl butyrate], the LogP in data set [1] is 4.352±0.206.
As to `C/C=C/c1ccc2c(c1)OCO2` [isosafrol], in data set [1], the LogP is given as 3.904±0.349 and the “Solubility (M)” value is 5,90E-04 M.
As to `COC(=O)c1ccccc1` [methyl benzoate], the “Solubility (M)” value in data set [1] was 0,02 M.
Regarding `C=CCc1ccc(OC)c(OC)c1` [methyl eugenol], the log partition coefficient (LogP) in data set [1] is reported as 2.655±0.243.
Consider `CCCCC(=O)OC` [methyl valerate], for which, in data set [1], the LogP was 1.804±0.205.
With `C/C=C/c1ccc(OC)c(OC)c1` [methyl-iso-eugenol], in data set [1], the LogP is reported as 3.049±0.239 and the “Solubility” value is 3.6 mM (≈ 642 µg/mL).
Turning to `O=CCc1ccccc1` [phenyl acetaldehyde], in data set [1], the LogP was 1.760±0.224 and the “Solubility (M)” value is 0,016 M.
Consider `NCCc1ccccc1` [phenylethylamine], for which, in data set [1], the LogP is recorded as 1.435±0.189 and the “Solubility (M)” value was 0,085 M.
For the compound `CC(=O)OCC=C(C)C` [prenyl acetate], in data set [1], the LogP was 2.017±0.274 and the “Solubility (M)” value is on record as 0,069 M.
`CCC/C=C/C=O` [trans-2-hexenal]: the LogP in data set [1] is given as 1.790±0.281.
Regarding `COc1cc(C=O)ccc1O` [vanillin], the “Solubility (M)” value in data set [1] is given as 0,024 M.
Consider `C/C1=C\CC/C(C)=C/CC(C)(C)/C=C/C1` [α-humulene], for which, in data set [1], the LogP is given as 6.592±0.249 and the “Solubility (M)” value was 1,10E-08 M.
